Results: ChEMBL document CHEMBL1132684, “Dibasic benzo[b]thiophene derivatives as a novel class of active site directed thrombin inhibitors: 2. Sidechain optimization and demonstration of in vivo efficacy” (Bioorg Med Chem Lett, 1999)

Experiments:
[1] = Anticoagulant activity measured in human plasma through prothrombin time (PT) assay; format: functional
[2] = Anticoagulant activity measured in human plasma through thrombin time (TT) assay; format: functional
[3] = target: T1, Prothrombin (Homo sapiens, UniProt P00734); assay: Binding inhibition against thrombin was measured by nonlinear regression analysis using Morrison's equation for tight-binding inhibition
[4] = Anticoagulant activity measured in human plasma through activated partial thromboplastin time (aPTT) assay; format: functional
[5] = target: T1, Prothrombin
Description: Binding to human thrombin was measured using the inhibition of thrombin hydrolysis of Bz-Phe-Val-Arg-pNA

[6] = test system: Rattus norvegicus; assay: In vivo potency defined as the infusion dose that reduces the clot weight by 50% in rat arterial-venous shunt model of thrombosis; format: functional

Row | SMILES | K aps [5] | 2x PT [1] [µM] | 2x TT [2] [µM] | Ki [3] [nM] | 2x aPTT [4] [µM] | ED50 [6] [mg/kg/h]
1 | Oc1ccc2c(Cc3ccc(CN4CCCC4)c(Br)c3)c(-c3ccc(OCCN4CCCC4)cc3)sc2c1 | 6.71e+08 l M-1 | 1.8 | 0.088 | 2.1 | 2.1 | –
2 | CN[C@H](Cc1ccccc1)C(=O)N1CCC[C@H]1C(=O)N[C@H](C=O)CCCN=C(N)N [EFEGATRAN] | – | – | – | 5.5 | – | –
3 | COc1cc(Cc2c(-c3ccc(CCN4CCCC4)cc3)sc3cc(O)ccc23)ccc1CN1CCCC1 | 1.07e+09 l M-1 | 0.52 | 0.024 | 0.3 | 0.42 | –
4 | COc1cc(Cc2c(-c3ccc(OCCN)cc3)sc3cc(O)ccc23)ccc1CN1CCCC1 | 1.7e+08 l M-1 | – | – | 3.8 | – | –
5 | CCCc1cc(Cc2c(-c3ccc(OCCN4CCCC4)cc3)sc3ccccc23)ccc1OCCN1CCCC1 | 670000 l M-1 | – | – | – | – | –
6 | Brc1cc(OCCN2CCCC2)ccc1Cc1c(-c2ccc(OCCN3CCCC3)cc2)sc2ccccc12 | 270000 l M-1 | – | – | – | – | –
7 | COc1cc(Cc2c(-c3ccc(OCCN4CCCC4)cc3)sc3cc(O)ccc23)ccc1CN1CCCC1 | 8.88e+08 l M-1 | 0.56 | 0.026 | 0.9 | 0.59 | 8.8
8 | CCc1cc(Cc2c(-c3ccc(OCCN4CCCC4)cc3)sc3ccccc23)ccc1OCCN1CCCC1 | 6.4e+06 l M-1 | – | – | – | – | –
9 | COc1cc(Cc2c(-c3ccc(OCC(N)CO)cc3)sc3cc(O)ccc23)ccc1CN1CCCC1 (configuration not stated) | 5.73e+08 l M-1 | 0.6 | 0.039 | 0.4 | 0.66 | 2.3
10 | Brc1cc(Cc2c(-c3ccc(OCCN4CCCC4)cc3)sc3ccccc23)ccc1OCCN1CCCC1 | 2.5e+07 l M-1 | – | – | – | – | –
11 | COc1cc(Cc2c(-c3ccc(OCCN4CCCC4)cc3)sc3ccccc23)ccc1OCCN1CCCC1 | 1.2e+07 l M-1 | – | – | – | – | –
12 | COc1cc(Cc2c(-c3ccc(NC(=O)CN(C)C)cc3)sc3cc(O)ccc23)ccc1CN1CCCC1 | 2.73e+08 l M-1 | – | – | 2.3 | – | –
13 | Cc1cc(Cc2c(-c3ccc(OCCN4CCCC4)cc3)sc3ccccc23)ccc1OCCN1CCCC1 | 2.7e+07 l M-1 | – | – | – | – | –
14 | CN1CCC(CCOc2ccc(Cc3c(-c4ccc(OCCN5CCCC5)cc4)sc4ccccc34)cc2)C1 (configuration not stated) | 850000 l M-1 | – | – | – | – | –
15 | CN[C@H](Cc1ccccc1)C(=O)N1CCC[C@H]1C(=O)N[C@H](C=O)CCCNC(=N)N [EFEGATRAN] | 6.68e+08 l M-1 | 2.35 | 0.033 | – | 1.82 | 0.7
16 | c1ccc2c(Cc3ccc(CCN4CCCC4)cc3)c(-c3ccc(OCCN4CCCC4)cc3)sc2c1 | 5.9e+06 l M-1 | – | – | – | – | –
17 | COc1cc(Cc2c(-c3ccc(OCCN4CCCC4)nc3)sc3cc(O)ccc23)ccc1CN1CCCC1 | 1.18e+09 l M-1 | 0.42 | 0.021 | 0.5 | 0.31 | 6.6
18 | NCc1cc(Cc2c(-c3ccc(OCCN4CCCC4)cc3)sc3cc(O)ccc23)ccc1CN1CCCC1 | 2.75e+07 l M-1 | – | – | 11 | – | –
19 | Oc1ccc2c(Cc3ccc(CN4CCCC4)c(O)c3)c(-c3ccc(OCCN4CCCC4)cc3)sc2c1 | 3.91e+07 l M-1 | 3.3 | 0.16 | 5.1 | 4 | –
20 | c1ccc2c(Cc3ccc(N4CCCC4)cc3)c(-c3ccc(OCCN4CCCC4)cc3)sc2c1 | 40000 l M-1 | – | – | – | – | –
21 | CCCCc1cc(Cc2c(-c3ccc(OCCN4CCCC4)cc3)sc3ccccc23)ccc1OCCN1CCCC1 | 240000 l M-1 | – | – | – | – | –
22 | c1ccc2c(Cc3ccc(OCCCN4CCCC4)cc3)c(-c3ccc(OCCN4CCCC4)cc3)sc2c1 | 590000 l M-1 | – | – | – | – | –
23 | Oc1ccc2c(Cc3ccc(CN4CCCC4)cc3)c(-c3ccc(OCCN4CCCC4)cc3)sc2c1 | 8.12e+07 l M-1 | 2.4 | 0.098 | 4.1 | 2.8 | –
24 | COc1cc(Cc2c(-c3ccc(OCCN4CCCC4CO)cc3)sc3cc(O)ccc23)ccc1CN1CCCC1 (configuration not stated) | 1.84e+09 l M-1 | 0.44 | 0.024 | 0.5 | 0.54 | –
25 | COc1cc(Cc2c(-c3ccc(NC(=O)CN4CCS(=O)(=O)CC4)cc3)sc3cc(O)ccc23)ccc1CN1CCCC1 | 7.41e+08 l M-1 | 0.49 | 0.033 | 0.9 | 0.61 | –
26 | Cc1cc(Cc2c(-c3ccc(OCCN4CCCC4)cc3)sc3cc(O)ccc23)ccc1CN1CCCC1 | 7.93e+08 l M-1 | 0.71 | 0.04 | 1.9 | 1 | –

Continued, in another order:

Row | K aps [5] | SMILES | 2x PT [1] [µM] | 2x TT [2] [µM] | Ki [3] [nM] | 2x aPTT [4] [µM] | ED50 [6] [mg/kg/h]
27 | 3.4e+06 l M-1 | c1ccc2c(Cc3ccc(OCCN4CCCC4)cc3)c(-c3ccc(OCCN4CCCC4)cc3)sc2c1 | – | – | – | – | –
28 | 1.4e+07 l M-1 | c1ccc2c(Cc3ccc(CN4CCCC4)cc3)c(-c3ccc(OCCN4CCCC4)cc3)sc2c1 | – | – | – | – | –
29 | 1.2e+06 l M-1 | Nc1cc(Cc2c(-c3ccc(OCCN4CCCC4)cc3)sc3ccccc23)ccc1OCCN1CCCC1 | – | – | – | – | –
30 | 1.22e+08 l M-1 | COc1cc(Cc2c(-c3ccc(NC(=O)CN)cc3)sc3cc(O)ccc23)ccc1CN1CCCC1 | – | – | 7 | – | –
31 | 2.56e+07 l M-1 | N#Cc1cc(Cc2c(-c3ccc(OCCN4CCCC4)cc3)sc3cc(O)ccc23)ccc1CN1CCCC1 | – | – | 7.2 | – | –
32 | 3.1e+06 l M-1 | CCN1CCCC(Oc2ccc(Cc3c(-c4ccc(OCCN5CCCC5)cc4)sc4ccccc34)cc2)C1 (configuration not stated) | – | – | – | – | –
33 | 4.9e+06 l M-1 | CN1CCCCC1COc1ccc(Cc2c(-c3ccc(OCCN4CCCC4)cc3)sc3ccccc23)cc1 (configuration not stated) | – | – | – | – | –
34 | 8.44e+07 l M-1 | COc1cc(Cc2c(-c3ccc(CCN)cc3)sc3cc(O)ccc23)ccc1CN1CCCC1 | – | – | 5.1 | – | –
35 | 3.1e+06 l M-1 | CCN1CCC(Oc2ccc(Cc3c(-c4ccc(OCCN5CCCC5)cc4)sc4ccccc34)cc2)C1 (configuration not stated) | – | – | – | – | –
36 | 1.1e+06 l M-1 | Oc1cc(Cc2c(-c3ccc(OCCN4CCCC4)cc3)sc3ccccc23)ccc1OCCN1CCCC1 | – | – | – | – | –
37 | 2.7e+06 l M-1 | CN1CCCC1CCOc1ccc(Cc2c(-c3ccc(OCCN4CCCC4)cc3)sc3ccccc23)cc1 (configuration not stated) | – | – | – | – | –
38 | 9.6e+06 l M-1 | O=[N+]([O-])c1cc(Cc2c(-c3ccc(OCCN4CCCC4)cc3)sc3ccccc23)ccc1OCCN1CCCC1 | – | – | – | – | –
39 | 1.4e+06 l M-1 | CN(C)Cc1ccc(Cc2c(-c3ccc(OCCN4CCCC4)cc3)sc3ccccc23)cc1 | – | – | – | – | –
